Source: patent US8734796B2, “Carrier immunoglobulins” (Amgen Inc., priority 2009, dated 2014)
No end group written: not given here.

Columns and labels:
[1] = tested on: thapsigargin-induced IL-2 secretion from T cells in human whole blood; test: Human whole blood ex vivo assay, IL-2 secretion; format: cell-based; conditions: for IC50: 50% human whole blood, thapsigargin stimulus, 48 hours, read-out: WB (IL-2) IC50
[2] = tested on: thapsigargin-induced IFN-g secretion from T cells in human whole blood; test: Human whole blood ex vivo assay, IFN-g secretion; format: cell-based; conditions: 50% human whole blood, thapsigargin stimulus, 48 hours; read-out: WB (IFNg) IC50
human Kv1.3 = human Kv1.3 (Homo sapiens, UniProt P22001); test: Whole cell patch clamp electrophysiology, Kv1.3
Sequence of human Kv1.3 (P22001 whole entry): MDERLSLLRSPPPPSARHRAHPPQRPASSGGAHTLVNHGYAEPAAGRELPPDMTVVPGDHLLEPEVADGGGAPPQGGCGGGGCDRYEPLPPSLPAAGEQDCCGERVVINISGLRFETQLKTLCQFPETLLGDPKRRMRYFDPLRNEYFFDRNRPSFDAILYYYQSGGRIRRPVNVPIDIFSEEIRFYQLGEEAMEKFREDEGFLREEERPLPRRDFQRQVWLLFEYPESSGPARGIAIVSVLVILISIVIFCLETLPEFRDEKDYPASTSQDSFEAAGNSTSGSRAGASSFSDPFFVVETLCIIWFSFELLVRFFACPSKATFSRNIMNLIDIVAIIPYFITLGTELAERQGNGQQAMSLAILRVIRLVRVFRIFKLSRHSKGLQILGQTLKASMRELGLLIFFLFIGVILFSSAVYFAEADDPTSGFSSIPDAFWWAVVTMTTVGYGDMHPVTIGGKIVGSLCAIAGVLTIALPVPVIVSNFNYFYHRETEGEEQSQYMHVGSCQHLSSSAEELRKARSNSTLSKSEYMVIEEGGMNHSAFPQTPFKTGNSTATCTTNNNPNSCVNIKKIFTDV

cloned hKv4.3 = target: T1, cloned hKv4.3 (Homo sapiens, UniProt Q9UK17); test: FASTPatch PatchXpress counterscreen, hKv4.3; format: cell-based; conditions: positive control, 0.1 mM
T1 sequence (Q9UK17 1-655): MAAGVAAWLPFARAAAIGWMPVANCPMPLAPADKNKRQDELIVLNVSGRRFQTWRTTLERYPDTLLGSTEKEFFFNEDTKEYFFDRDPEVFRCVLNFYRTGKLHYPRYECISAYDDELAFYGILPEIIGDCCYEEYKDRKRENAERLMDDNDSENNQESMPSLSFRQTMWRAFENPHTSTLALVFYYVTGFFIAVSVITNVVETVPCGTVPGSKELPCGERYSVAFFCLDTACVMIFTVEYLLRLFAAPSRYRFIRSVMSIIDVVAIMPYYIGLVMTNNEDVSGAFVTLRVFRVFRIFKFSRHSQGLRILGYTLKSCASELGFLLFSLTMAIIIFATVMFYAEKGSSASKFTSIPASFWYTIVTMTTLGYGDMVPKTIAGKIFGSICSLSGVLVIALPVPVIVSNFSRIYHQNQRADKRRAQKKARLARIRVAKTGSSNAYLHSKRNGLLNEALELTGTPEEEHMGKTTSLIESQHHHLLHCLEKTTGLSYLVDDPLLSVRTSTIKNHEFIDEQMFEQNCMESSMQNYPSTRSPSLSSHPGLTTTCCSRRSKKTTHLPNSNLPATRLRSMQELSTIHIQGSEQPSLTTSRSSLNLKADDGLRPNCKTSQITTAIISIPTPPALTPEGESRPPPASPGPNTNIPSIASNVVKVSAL

[3] = reported by C. Beeton et al., PNAS 98:13942 (2001); cited from earlier work
cloned hKv1.5 = cloned hKv1.5 (Homo sapiens, UniProt P22460); test: FASTPatch PatchXpress counterscreen, hKv1.5; format: cell-based; conditions: positive control, 2 mM
Sequence of cloned hKv1.5 (P22460 whole entry): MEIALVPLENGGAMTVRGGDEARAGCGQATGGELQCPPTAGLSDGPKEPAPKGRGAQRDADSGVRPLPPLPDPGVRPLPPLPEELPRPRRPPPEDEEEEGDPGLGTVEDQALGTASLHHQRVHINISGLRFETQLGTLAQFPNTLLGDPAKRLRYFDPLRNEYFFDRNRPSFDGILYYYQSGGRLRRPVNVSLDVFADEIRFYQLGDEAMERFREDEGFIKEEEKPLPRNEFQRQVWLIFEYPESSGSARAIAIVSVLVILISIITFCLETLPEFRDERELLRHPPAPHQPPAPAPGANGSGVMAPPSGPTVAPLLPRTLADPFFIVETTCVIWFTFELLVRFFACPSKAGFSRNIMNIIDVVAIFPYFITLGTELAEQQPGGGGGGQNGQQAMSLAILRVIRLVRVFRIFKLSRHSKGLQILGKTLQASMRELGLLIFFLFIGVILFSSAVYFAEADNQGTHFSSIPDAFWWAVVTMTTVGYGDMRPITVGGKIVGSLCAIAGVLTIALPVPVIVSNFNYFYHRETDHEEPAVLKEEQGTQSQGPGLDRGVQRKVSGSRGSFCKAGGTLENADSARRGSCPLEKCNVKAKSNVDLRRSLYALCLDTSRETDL

DNP(31)-BSA = target: T2, DNP(31)-BSA (Bos taurus, UniProt P02769); test: BIAcore binding assay, DNP(31)-BSA; conditions: apparent
T2 construct: purchased Biosearch Technologies, Inc. (Novato, Calif.)
T2 sequence (P02769 25-607): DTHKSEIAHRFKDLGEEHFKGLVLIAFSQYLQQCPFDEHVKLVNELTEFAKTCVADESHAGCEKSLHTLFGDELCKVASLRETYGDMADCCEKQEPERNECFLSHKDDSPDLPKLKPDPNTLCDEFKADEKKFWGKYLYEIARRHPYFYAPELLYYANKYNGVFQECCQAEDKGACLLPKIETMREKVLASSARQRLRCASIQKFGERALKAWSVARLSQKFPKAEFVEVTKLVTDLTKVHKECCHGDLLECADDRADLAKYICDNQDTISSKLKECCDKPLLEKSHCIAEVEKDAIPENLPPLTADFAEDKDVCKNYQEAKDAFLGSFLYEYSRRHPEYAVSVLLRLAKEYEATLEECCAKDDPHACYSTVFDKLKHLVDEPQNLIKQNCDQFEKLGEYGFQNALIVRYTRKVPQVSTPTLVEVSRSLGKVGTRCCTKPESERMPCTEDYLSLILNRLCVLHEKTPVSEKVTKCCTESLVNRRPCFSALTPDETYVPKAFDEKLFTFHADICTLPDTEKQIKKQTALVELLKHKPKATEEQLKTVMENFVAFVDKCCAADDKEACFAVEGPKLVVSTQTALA
Description: Materials. Purified anti-DNP antibodies from either hybridoma (3A1, 3C2, 3A4 and 3B1) or recombinant CHO (3A4-F-G2 and 3B1-G2) expression were tested. Anti-human IgG, Fcγ-specific antibody was from Jackson ImmunoResearch Laboratories, Inc. (West Grove, Pa.). DNP-BSA (2,4-dinitrophenol conjugated to bovine serum albumin) was from Biosearch Technologies, Inc. (Novato, Calif.). BIACore 2000, research grade sensor chip CM5, surfactant P-20 (polyoxyethylenesorbitan), HBS-EP (10 mM HEPES, 0.15M NaCl, 3.4 mM EDTA, 0.005% P-20, pH 7.4), amine coupling reagents, 10 mM acetate pH 4.0 and 10 mM glycine, pH 1.5 were from BIACore, Inc. (Piscataway, N.J.). Phosphate-buffered saline (PBS, 1×, no calcium chloride, no magnesium chloride) was from Invitrogen (Carlsbad, Calif.). Bovine serum albumin (BSA, fraction V, IgG free) was from Sigma (St. Louis, Mo.).
Methods. BIAcore® analyses were carried out as follows. Immobilization of anti-human IgG, Fcγ-specific antibody to the CM5 sensor chip surface was performed according to manufacturer's instructions, using a continuous flow of 10 mM HEPES, 0.15M NaCl, 3.4 mM EDTA, 0.005% P-20, pH 7.4 (HBS-EP buffer). Briefly, carboxyl groups on the sensor chip surfaces were activated by injecting 60 μL of a mixture containing 0.2 M 1-ethyl-3-[3-dimethylaminopropyl]carbodiimide hydrochloride (EDC) and 0.05 M N-hydroxysuccinimide (NHS). Specific surfaces were obtained by injecting 180 μL of anti-human IgG, Fcγ-specific antibody diluted in 10 mM acetate buffer (for assay of aKLH antibodies: pH 4.5 at a concentration of 30 μg/mL; for assay of aDNP antibodies: pH 4.0 at a concentration of 60 μg/mL). Excess reactive groups on the surfaces were deactivated by injecting 60 μL of 1 M ethanolamine. Final immobilized levels were about 9,000 (for assay of aKLH antibodies) or about 10,000 (for assay of aDNP antibodies) resonance units (RU). A blank, mock-coupled reference surface was also prepared on the sensor chip. Antibodies and antigen were diluted in sample buffer consisting of PBS+0.005% P-20+0.1 mg/mL BSA. […]

For “Bivalent Fc-L10-ShK[1-35] homodimer: IgG1 Fc-L10-ShK(1-35) peptibody homodimer, Example 1 of WO2008/088422A2 (GGGGSGGGGSRSCIDTIPKSRCTAFQCKHSMKYRLSFCRKTCGTC; not fully specified (N-terminus); ends and bridges not checked; also: homodimer via Fc) [reference compound]”, which IC50 [1] is on record?
The IC50 was 0.386 nM.

What about the IC50 [2] of the same molecule?
The IC50 was 0.32 nM.

And the “greater Kv1.3 activity compared to the bivalent Fc-L10-ShK(2-35) molecule” value (human Kv1.3; whole cell patch clamp electrophysiology)?
The value was “about 8 fold”.

With `O=C(NCC1CCCCN1)c1cc(OCC(F)(F)F)ccc1OCC(F)(F)F` (stereo not drawn) [flecamide] as the molecule, how does the “inhibition of the hKv4.3 current” value (cloned hKv4.3) read?
The value was “about 75%”.

With “Bivalent Fc-L10-ShK[2-35] homodimer: IgG1 Fc-L10-ShK(2-35) peptibody homodimer, Example 2 of WO2008/088422A2 (GGGGSGGGGSSCIDTIPKSRCTAFQCKHSMKYRLSFCRKTCGTC; not fully specified (N-terminus); ends and bridges not checked; also: homodimer via Fc) [reference compound]” as the molecule, how does the IC50 [1] read?
Its IC50 is 0.585 nM.

And the “Potency Relative to ShK (WB, IL2)” value ([1]; ratio of WB IL-2 IC50 to that of ShK(1-35))?
Its value is 8.73.

What about the IC50 [2] of the same molecule?
Its IC50 is 2.29 nM.

And the “Kv1.1/Kv1.3 Selectivity Ratio (of asterisked IC50 values)” value (human Kv1.3; IC50 values from whole cell patch clamp)?
The value was 3.54.

With `CC[C@H](C)[C@@H]1NC(=O)[C@@H](NC(=O)[C@H](CO)NC(=O)[C@@H](N)CCCNC(=N)N)CSSC[C@@H](C(=O)O)NC(=O)[C@H]([C@@H](C)O)NC(=O)CNC(=O)[C@@H]2CSSC[C@@H]3NC(=O)[C@H](CCC(N)=O)NC(=O)[C@H](Cc4ccccc4)NC(=O)[C@H](C)NC(=O)[C@H]([C@@H](C)O)NC(=O)[C@H](CSSC[C@H](NC(=O)[C@H](Cc4ccccc4)NC(=O)[C@H](CO)NC(=O)[C@H](CC(C)C)NC(=O)[C@H](CCCNC(=N)N)NC(=O)[C@H](Cc4ccc(O)cc4)NC(=O)[C@H](CCCCN)NC(=O)[C@H](CCSC)NC(=O)[C@H](CO)NC(=O)[C@H](Cc4cnc[nH]4)NC(=O)[C@H](CCCCN)NC3=O)C(=O)N[C@@H](CCCNC(=N)N)C(=O)N[C@@H](CCCCN)C(=O)N[C@@H]([C@@H](C)O)C(=O)N2)NC(=O)[C@H](CCCNC(=N)N)NC(=O)[C@H](CO)NC(=O)[C@H](CCCCN)NC(=O)[C@@H]2CCCN2C(=O)[C@H]([C@@H](C)CC)NC(=O)[C@H]([C@@H](C)O)NC(=O)[C@H](CC(=O)O)NC1=O` [ShK(1-35), ShK] as the molecule, how does the half-life [3] read?
Its half-life is 20 to 30 min.

For “20 kDa-PEG-ShK: SEQ ID NO:363; ShK PEGylated at its N-terminus with 20 kDa PEG [reference compound]”, which IC50 [1] is on record?
The IC50 was 0.38 nM.

What about the IC50 [2] of the same molecule?
Its IC50 is 0.84 nM.

For `Nc1ccncc1` [4-aminopyridine], which “block of the hKv1.5 current” value (cloned hKv1.5) is on record?
Its value is “about 80%”.

B1: 3B1-G2: recombinant IgG2 form of anti-DNP antibody 3B1 (protein)
light: DIQMTQSPSSLSASEGDRVTITCRASQGIRNDLGWYQQKPGKAPKRLIYAASSLQSGVPLRFSGSGSGTEFTLTISSLQPEDFATYYCLQYNSYPWTFGQGTKVEIKRTVAAPSVFIFPPSDEQLKSGTASVVCLLNNFYPREAKVQWKVDNALQSGNSQESVTEQDSKDSTYSLSSTLTLSKADYEKHKVYACEVTHQGLSSPVTKSFNRGEC
heavy: QVQLQESGPGLVKPSETLSLTCTVSGGSISSYYWSWIRQPPGKGLEWIGYIYYSGNTNSNPSLKSRVTISVDTSKNQFSLKLSSVTAADTAVYYCARTYYDSSGYYYRAFDIWGQGTMVTVSSASTKGPSVFPLAPCSRSTSESTAALGCLVKDYFPEPVTVSWNSGALTSGVHTFPAVLQSSGLYSLSSVVTVPSSNFGTQTYTCNVDHKPSNTKVDKTVERKCCVECPPCPAPPVAGPSVFLFPPKPKDTLMISRTPEVTCVVVDVSHEDPEVQFNWYVDGVEVHNAKTKPREEQFNSTFRVVSVLTVVHQDWLNGKEYKCKVSNKGLPAPIEKTISKTKGQPREPQVYTLPPSREEMTKNQVSLTCLVKGFYPSDIAVEWESNGQPENNYKTTPPMLDSDGSFFLYSKLTVDKSRWQQGNVFSCSVMHEALHNHYTQKSLSLSPGK
What does the source list for B1?
Kd (DNP(31)-BSA): 0.7 nM; ka, Binding to DNP(31)-BSA (DNP(31)-BSA; ne(y) = n × 10^(y)): 420000 M⁻¹ s⁻¹; kd, Binding to DNP(31)-BSA (DNP(31)-BSA; ne(y) = n × 10^(y)): 0.00031 s⁻¹
